The values below come from US7488712B2, “Histone deacetylase inhibitors and methods for producing the same” (Kyushu Institute of Technology, priority 2002, dated 2009).

*1 amine or outer side, *2 acyl side, *3 side chain or, on linkers, in order; H or OH if unused. Where a SMILES comes first, the peptide text is derived from it. Bridges are numbered along the chain shown (N, C = ends). Roman numbers before positions name the chains, in order. [ ]: non-standard residue; d: D form. hNle(7-SH) = O=C([C@H](CCCCCS[*:3])N[*:1])[*:2]; Pip = O=C(O)[C@@H]1CCCCN1; dPip = O=C(O)[C@H]1CCCCN1

Assay [1] deals with human wild-type p21 promoter. The assay is described as follows: p21 promoter-inducing activity (luciferase) in MFLL-9 cells. It counts as cell-based. As to the method: The HDAC inhibition activity in vivo was measured using p21 promoter-inducing activity as an index, as shown below. The MFLL-9 cells employed for the experiments stably maintained fusion genes of human wild-type p21 promoter and luciferase (Dr. B. Vogelstaein). Using phenol red-free DMEM medium comprising 10% FBS, cultivation was carried out in a steam-saturated incubator at 37° C. with 5% carbon dioxide. The MFLL-9 cells were plated at a density of 85,000 cells/well on a 96-well microtiter plate, each in 99 μl of the above-mentioned medium. These were then cultivated for six hours. One μl of test compound solution was added to each well, which was then cultured for another 18 hours.
The intensity of luminescence caused by the product of the enzyme reaction for intracellular luciferase expression was measured using Luc Lite (Packard BioScience Company). A group in which test compounds were not added was used as a negative control group. The values measured for this group were used as a standard. The activities for each concentration of added test compound were expressed relative to the above-mentioned standard value, 1.

In another assay the target is T1, human HDAC4 (Homo sapiens, UniProt P56524).
T1 construct: FLAG; made in house; host or cells: 293T cells (transient transfection, anti-FLAG immunoprecipitation, FLAG peptide elution)
T1 sequence (O15379 whole entry partner): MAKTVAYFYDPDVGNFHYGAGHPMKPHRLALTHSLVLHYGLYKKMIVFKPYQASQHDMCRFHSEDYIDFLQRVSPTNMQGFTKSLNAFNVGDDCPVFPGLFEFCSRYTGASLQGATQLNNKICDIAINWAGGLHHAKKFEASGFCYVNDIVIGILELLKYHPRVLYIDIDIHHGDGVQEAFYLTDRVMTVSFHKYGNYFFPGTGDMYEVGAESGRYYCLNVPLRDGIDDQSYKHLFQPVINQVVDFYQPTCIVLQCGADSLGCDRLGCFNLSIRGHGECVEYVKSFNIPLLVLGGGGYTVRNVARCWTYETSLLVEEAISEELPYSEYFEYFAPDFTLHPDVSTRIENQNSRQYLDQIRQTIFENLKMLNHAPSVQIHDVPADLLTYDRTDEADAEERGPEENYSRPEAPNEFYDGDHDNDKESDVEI
T1 sequence (P56524 whole entry): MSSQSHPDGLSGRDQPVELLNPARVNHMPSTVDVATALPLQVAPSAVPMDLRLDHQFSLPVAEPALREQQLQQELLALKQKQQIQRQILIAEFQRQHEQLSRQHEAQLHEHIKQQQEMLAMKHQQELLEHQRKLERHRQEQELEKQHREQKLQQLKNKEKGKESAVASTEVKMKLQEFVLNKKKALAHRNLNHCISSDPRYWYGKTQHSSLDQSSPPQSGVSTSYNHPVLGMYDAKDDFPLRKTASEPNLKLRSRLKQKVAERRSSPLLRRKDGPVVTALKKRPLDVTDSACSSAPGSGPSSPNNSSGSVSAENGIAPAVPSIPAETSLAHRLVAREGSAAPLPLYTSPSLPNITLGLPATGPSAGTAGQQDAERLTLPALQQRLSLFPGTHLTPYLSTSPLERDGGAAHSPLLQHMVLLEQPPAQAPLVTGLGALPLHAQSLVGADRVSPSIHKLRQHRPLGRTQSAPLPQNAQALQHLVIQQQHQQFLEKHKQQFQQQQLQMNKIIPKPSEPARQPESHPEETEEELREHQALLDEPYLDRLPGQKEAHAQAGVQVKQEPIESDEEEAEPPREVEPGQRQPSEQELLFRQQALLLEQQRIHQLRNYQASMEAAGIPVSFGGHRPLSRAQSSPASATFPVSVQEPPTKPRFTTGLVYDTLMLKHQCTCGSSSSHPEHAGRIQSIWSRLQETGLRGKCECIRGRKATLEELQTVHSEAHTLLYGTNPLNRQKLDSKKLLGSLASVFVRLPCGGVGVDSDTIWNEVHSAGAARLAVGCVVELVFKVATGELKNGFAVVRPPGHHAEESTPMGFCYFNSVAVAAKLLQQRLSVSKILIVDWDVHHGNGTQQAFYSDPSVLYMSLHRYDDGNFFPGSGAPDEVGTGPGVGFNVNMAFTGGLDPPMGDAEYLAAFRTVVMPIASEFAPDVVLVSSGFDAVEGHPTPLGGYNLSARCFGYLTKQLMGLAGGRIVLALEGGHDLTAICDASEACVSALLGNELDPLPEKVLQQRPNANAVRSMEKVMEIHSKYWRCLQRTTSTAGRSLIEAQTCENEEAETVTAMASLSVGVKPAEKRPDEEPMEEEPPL
The assay is described as follows: In vitro HDAC inhibition activity, [3H]-acetylated histone substrate, HDAC4. It counts as biochemical. Here is the method:
(§1) To measure HDAC inhibition activity, an HDAC solution was prepared as described below. 1×10^7 of 293T cells were plated on to a 100-mm dish and, after 24 hours, transfected with vectors (1 μg) expressing human HDAC1 and HDAC4 or mouse HDAC6, using LipofectAmine 2000 reagent (Life Technologies, Inc. Gaithersburg, Md.). […] The vectors were introduced for five hours in OPTI-MEM. The medium was then replaced with Dulbecco's modified Eagle's medium (DMEM), and incubated for 19 hours. The cells were washed with PBS, suspended in lysis buffer (50 mM Tris-HCl (pH7.5), 120 mM NaCl, 5 mM EDTA, and 0.5% Nonidet P-40), and sonicated. The supernatant was collected by centrifugation and nonspecific protein was removed using Protein A/G plus agarose beads (Santa Cruz Biotechnologies, Inc.). Anti-FLAG M2 antibodies (Sigma-Aldrich, Inc.) were added to the supernatant of cells expressing HDAC1 or HDAC4. Anti-HA antibodies (clone 3F10, Roche Molecular Biochemicals) were added to the supernatant of cells expressing HDAC6. Reaction in the respective mixtures was carried out at 4° C. for one hour. The resulting reaction mixtures were independently mixed with agarose beads and further reacted at 4° C. for one hour. The agarose beads were washed three times with lysis buffer and then washed once with HD buffer (20 mM Tris-HCl (pH8.0), 150 mM NaCl, 10% glycerol, and a complete protease inhibitor cocktail (Boehringer Mannheim, Germany)). […] The HDAC reaction solution was used for determining HDAC inhibition activity as shown below.
(§2) In vitro HDAC inhibition activity was evaluated as follows: A test compound was dissolved in DMSO and adjusted to 10 mM. This was used as an inhibitor stock solution. […] These reactions were stopped by adding 10 μl HCl. The [^3H] acetic acid excised by the enzyme reaction was extracted with ethyl acetate and subjected to radioactive dose measurement. As a negative control, the same procedure was carried out in which no inhibitor was added to the reaction system. The inhibition activity was expressed as a 50% inhibition concentration (“IC50 (nM)”) of the HDAC activity in the negative control (Tables 1 to 4).

Another assay concerns the target T2, mouse HDAC6 (Mus musculus, UniProt Q9Z2V5).
T2 construct: HA; made in house; host or cells: 293T cells (transient transfection, anti-HA immunoprecipitation, HA peptide elution)
T2 sequence (Q9Z2V5 1-1149): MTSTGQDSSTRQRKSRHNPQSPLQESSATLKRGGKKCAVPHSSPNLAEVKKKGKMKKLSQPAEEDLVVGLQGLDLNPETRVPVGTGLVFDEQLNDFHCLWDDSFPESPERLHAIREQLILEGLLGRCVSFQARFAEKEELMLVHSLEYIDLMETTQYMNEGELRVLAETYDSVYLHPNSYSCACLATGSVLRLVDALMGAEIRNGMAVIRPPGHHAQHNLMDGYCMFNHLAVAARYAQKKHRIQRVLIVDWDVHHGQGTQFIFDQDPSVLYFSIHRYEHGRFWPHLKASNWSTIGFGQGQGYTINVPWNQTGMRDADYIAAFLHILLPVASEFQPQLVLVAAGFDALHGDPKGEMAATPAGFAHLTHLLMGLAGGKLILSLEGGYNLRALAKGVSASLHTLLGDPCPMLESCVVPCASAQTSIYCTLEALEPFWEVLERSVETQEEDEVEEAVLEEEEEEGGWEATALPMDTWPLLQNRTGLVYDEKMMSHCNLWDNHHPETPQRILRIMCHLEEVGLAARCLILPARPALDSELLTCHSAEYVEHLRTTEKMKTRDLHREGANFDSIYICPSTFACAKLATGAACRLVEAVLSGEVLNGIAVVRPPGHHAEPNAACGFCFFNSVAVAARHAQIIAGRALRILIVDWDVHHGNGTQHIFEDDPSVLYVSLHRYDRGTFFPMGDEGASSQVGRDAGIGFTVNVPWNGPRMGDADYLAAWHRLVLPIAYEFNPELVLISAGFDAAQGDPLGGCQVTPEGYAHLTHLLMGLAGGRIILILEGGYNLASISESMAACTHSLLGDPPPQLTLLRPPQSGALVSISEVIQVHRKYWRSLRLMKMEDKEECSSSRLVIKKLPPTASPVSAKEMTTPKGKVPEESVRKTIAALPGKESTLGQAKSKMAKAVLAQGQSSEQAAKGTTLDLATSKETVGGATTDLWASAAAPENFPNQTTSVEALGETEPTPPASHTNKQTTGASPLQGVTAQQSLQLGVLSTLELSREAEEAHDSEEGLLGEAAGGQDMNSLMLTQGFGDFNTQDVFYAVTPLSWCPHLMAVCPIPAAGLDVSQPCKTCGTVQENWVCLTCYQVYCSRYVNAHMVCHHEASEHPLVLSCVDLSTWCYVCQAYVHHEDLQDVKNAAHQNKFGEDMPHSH
The experiment in a line: In vitro HDAC inhibition activity, [3H]-acetylated histone substrate, HDAC6. It counts as biochemical. As to the method: as §1, §2

A further assay has as its target T3, human HDAC1 (Homo sapiens, UniProt Q13547).
T3 construct: FLAG; made in house; host or cells: 293T cells (transient transfection, anti-FLAG immunoprecipitation, FLAG peptide elution)
The experiment in a line: In vitro HDAC inhibition activity, [3H]-acetylated histone substrate, HDAC1. The assay is classed as biochemical. Here is the method: as §1, §2

Where [2] appears, read: Table 3, hybrid with DTT (/DTT).
The mark [3] stands for this setting: Table 1, X = H (coexisting with DTT).

T3 sequence (Q13547 whole entry): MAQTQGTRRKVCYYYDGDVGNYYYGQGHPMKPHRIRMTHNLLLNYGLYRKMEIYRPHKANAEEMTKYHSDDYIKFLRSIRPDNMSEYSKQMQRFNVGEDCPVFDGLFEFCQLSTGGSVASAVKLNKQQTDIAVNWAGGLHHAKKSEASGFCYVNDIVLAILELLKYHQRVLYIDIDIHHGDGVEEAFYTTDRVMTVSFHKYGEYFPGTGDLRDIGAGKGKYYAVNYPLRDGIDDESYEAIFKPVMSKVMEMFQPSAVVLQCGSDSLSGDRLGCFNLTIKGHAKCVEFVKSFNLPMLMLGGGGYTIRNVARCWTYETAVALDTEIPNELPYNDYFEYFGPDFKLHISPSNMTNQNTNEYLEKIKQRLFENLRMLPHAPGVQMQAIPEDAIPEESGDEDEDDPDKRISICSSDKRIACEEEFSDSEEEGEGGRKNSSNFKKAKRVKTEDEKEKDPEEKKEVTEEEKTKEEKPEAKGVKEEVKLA

Regarding “cyclo(-L-Am7(S2Py)-D-Tyr(Me)-L-Ile-D-Pro-) [SCOP 401]”, the concentration for a half-maximal effect (EC50) (in general, the concentration giving half of the maximal effect) in assay [1] (setting [2]) worked out at 815 nM; in assay [1] (Table 3, hybrid, without DTT), 1360 nM.

As to `CC[C@H](C)[C@@H]1NC(=O)[C@@H](Cc2ccc(OC)cc2)NC(=O)[C@H](CCCCCSSCCCCC[C@@H]2NC(=O)[C@H]3CCCCN3C(=O)[C@H]([C@@H](C)CC)NC(=O)[C@@H](Cc3ccc(OC)cc3)NC2=O)NC(=O)[C@H]2CCCCN2C1=O` [SCOP 300, cyclo(-L-Am7(-)-D-Tyr(Me)-L-Ile-D-Pip-] (I: cyclo([hNle(7-SH)][dY](Me)I[dPip]) / II: cyclo([hNle(7-SH)][dY](Me)I[dPip]); disulfide I:1-II:1), the EC50 in assay [1] (Table 2, homodimer) was 7370 nM. In addition, the half-maximal inhibitory concentration (IC50) (usually the concentration needed to halve the response being measured) against human HDAC4 (Table 2, homodimer) amounted to 36.2 nM; against mouse HDAC6 (Table 2, homodimer) it was 255000 nM; against human HDAC1 (Table 2, homodimer), 61.1 nM.

The compound `CC[C@H](C)[C@@H]1NC(=O)[C@@H](Cc2ccc(OC)cc2)NC(=O)[C@H](CCCCCCS)NC(=O)[C@H]2CCCN2C1=O` [SCOP 153] came in with an EC50 in assay [1] (Table 1, X = H (coexisting with DTT), 50% of maximum active value for TSA) of 9850 nM. In addition, the 50% inhibitory concentration (IC50) against human HDAC4 (setting [3]) came to 91 nM; against mouse HDAC6 (setting [3]), 8050 nM; at human HDAC1 (setting [3]) it was 9.13 nM.

Regarding `CC[C@H](C)[C@@H]1NC(=O)[C@@H](Cc2ccc(OC)cc2)NC(=O)[C@H](CCCCCSSCCO)NC(=O)[C@H]2CCCN2C1=O` [SCOP 404, cyclo(-L-Am7(SMEt)-D-Tyr(Me)-L-Ile-D-Pro-)], the EC50 stood at 754 nM in assay [1] (setting [2]) and 1360 nM in assay [1] (Table 3, hybrid, without DTT). The 50% inhibitory concentration (IC50) on human HDAC4 (setting [2]) was found to be 13 nM; on human HDAC4 (Table 3, hybrid, without DTT), 355 nM; on mouse HDAC6 (setting [2]), 15400 nM; on mouse HDAC6 (Table 3, hybrid, without DTT) it was 201000 nM; against human HDAC1 (setting [2]) it was 2.44 nM; at human HDAC1 (Table 3, hybrid, without DTT) it was 217 nM.

Consider `CC[C@H](C)[C@@H]1NC(=O)[C@@H](Cc2ccc(OC)cc2)NC(=O)[C@H](CCCCCSSCCCCC[C@@H]2NC(=O)[C@@H]3CCCCN3C(=O)[C@H]([C@@H](C)CC)NC(=O)[C@@H](Cc3ccc(OC)cc3)NC2=O)NC(=O)[C@@H]2CCCCN2C1=O` [SCOP 298, cyclo(-L-Am7(-)-D-Tyr(Me)-L-Ile-L-Pip-] (I: cyclo([hNle(7-SH)][dY](Me)I[Pip]) / II: cyclo([hNle(7-SH)][dY](Me)I[Pip]); disulfide I:1-II:1), for which, in assay [1] (Table 2, homodimer), the EC50 was 5800 nM. For the same compound, the IC50 against human HDAC4 (Table 2, homodimer) amounted to 33.7 nM; against mouse HDAC6 (Table 2, homodimer), 418000 nM; at human HDAC1 (Table 2, homodimer), 114 nM.

Turning to `CC[C@H](C)[C@@H]1NC(=O)[C@@H](Cc2ccc(OC)cc2)NC(=O)[C@H](CCCCCSSCCCCC[C@@H]2NC(=O)[C@@H]3CCCN3C(=O)[C@H]([C@@H](C)CC)NC(=O)[C@@H](Cc3ccc(OC)cc3)NC2=O)NC(=O)[C@@H]2CCCN2C1=O` [SCOP 296, cyclo(-L-Am7(-)-D-Tyr(Me)-L-Ile-L-Pro-)] (I: cyclo([hNle(7-SH)][dY](Me)IP) / II: cyclo([hNle(7-SH)][dY](Me)IP); disulfide I:1-II:1), a half-maximal effect in assay [1] (Table 2, homodimer) (EC50) was put at 7730 nM. Also, the IC50 at human HDAC4 (Table 2, homodimer) is 222 nM; at mouse HDAC6 (Table 2, homodimer) it was more than 500000 nM; against human HDAC1 (Table 2, homodimer) it was 763 nM.
